Assays:
morningglory = test: Test B pre/postemergence morningglory; format: in vivo, Ipomoea hederacea
How it was run: (§1)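 Response is a visual 0-to-10 score relative to untreated plants, where 0 means no effect and 10 means complete control, taken twelve to sixteen days after application. Treatments went onto soil at planting and onto foliage of 1- to 4-leaf plants, using a surfactant-containing non-phytotoxic solvent.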

pigweed = test: Test B pre/postemergence pigweed; format: in vivo, Amaranthus retroflexus
How it was run: as §1

rape = test: Test B pre/postemergence rape; format: in vivo, Brassica napus
How it was run: as §1

wheat = test: Test B pre/postemergence wheat; format: in vivo, Triticum aestivum
How it was run: as §1

rice = test: Test B flood test rice; format: in vivo, Oryza sativa
How it was run: (§2)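 Read-out is a visual response score from 0 (no effect) to 10 (complete control), assigned by comparison with untreated controls. Treatment was applied at the 2-leaf stage, and plants stayed in the greenhouse for twelve to sixteen days before scoring.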

surinam grass = test: Test B pre/postemergence surinam grass; format: in vivo, Brachiaria decumbens
How it was run: as §1

soybean = test: Test B pre/postemergence soybean; format: in vivo, Glycine max
How it was run: as §1

cocklebur = test: Test B pre/postemergence cocklebur; format: in vivo, Xanthium strumarium
How it was run: as §1

wild oat = test: Test B pre/postemergence wild oat; format: in vivo, Avena fatua
How it was run: as §1

smallflower flatsedge = test: Test B flood test smallflower flatsedge; format: in vivo, Cyperus difformis
How it was run: as §2

velvetleaf = test: Test B pre/postemergence velvetleaf; format: in vivo, Abutilon theophrasti
How it was run: as §1

sugar beet = test: Test B pre/postemergence sugar beet; format: in vivo, Beta vulgaris
How it was run: as §1

giant foxtail = test: Test B pre/postemergence giant foxtail; format: in vivo, Setaria faberii
How it was run: as §1

duck salad = test: Test B flood test duck salad; format: in vivo, Heteranthera limosa
How it was run: as §2

corn = test: Test B pre/postemergence corn; format: in vivo, Zea mays
How it was run: as §1

blackgrass = test: Test B pre/postemergence blackgrass; format: in vivo, Alopecurus myosuroides
How it was run: as §1

[1] = Postemergence, Rate 125 g/ha, scale of 0 to 10 where 0 is no effect and 10 is complete control
[2] = Postemergence, Rate 250 g/ha, scale of 0 to 10, 0 is no effect, 10 is complete control
[3] = Postemergence, Rate 500 g/ha, scale of 0 to 10 where 0 is no effect and 10 is complete control
[4] = Postemergence, Rate 1000 g/ha, scale 0 to 10 (0 no effect, 10 complete control)
[5] = Preemergence, Rate 125 g/ha, scale of 0 to 10 where 0 is no effect and 10 is complete control
[6] = Preemergence, Rate 250 g/ha, scale 0 to 10 (0 no effect, 10 complete control)
[7] = Preemergence, Rate 500 g/ha, scale of 0 to 10 where 0 is no effect and 10 is complete control
[8] = Rate 1000 g/ha, Preemergence, scale 0 to 10 (0 no effect, 10 complete control)
[9] = Pre-emergence, Rate 1000 g/ha, scale 0 to 10 (0 no effect, 10 complete control)
[10] = Rate 125 g/ha, under heading Pre-emergence, flood test species, visual evaluation after twelve to sixteen days
[11] = Rate 250 g/ha, Pre-emergence (flood test species), scale 0 to 10, 0 is no effect, 10 is complete control
[12] = Rate 500 g/ha, Pre-emergence section of Table B, 0 to 10 scale (0 no effect, 10 complete control)

CCOP(=O)(OCC)C(C)n1c(=O)on(C(=O)N(c2ccc(F)cc2)C(C)C)c1=O (centres unmarked) [Compound 617]
0: Plant response rating, Morningglory (morningglory; [1]) | Morningglory plant response rating (morningglory; [2]) | Morningglory plant response rating (morningglory; [5]) | Plant response rating, Morningglory (morningglory; [6]) | Plant response rating, Morningglory (morningglory; [7]) | Plant response rating, Morningglory (morningglory; [8]) | Plant response rating, Redroot pigweed (pigweed; [1]) | Redroot pigweed plant response rating (pigweed; [2]) | Redroot pigweed plant response rating (pigweed; [4]) | Redroot pigweed plant response rating (pigweed; [5]) | Plant response rating, Redroot pigweed (pigweed; [6]) | Plant response rating, Redroot pigweed (pigweed; [7]) | Plant response rating, Redroot pigweed (pigweed; [8]) | Plant response rating, Rape (rape; [1]) | Rape plant response rating (rape; [2]) | Plant response rating, Rape (rape; [3]) | Rape plant response rating (rape; [4]) | Rape plant response rating (rape; [5]) | Plant response rating, Rape (rape; [6]) | Plant response rating, Rape (rape; [7]) | Plant response rating, Rape (rape; [8]) | Plant response rating, Wheat (wheat; [1]) | Wheat plant response rating (wheat; [2]) | Wheat plant response rating (wheat; [4]) | Wheat plant response rating (wheat; [5]) | Plant response rating, Wheat (wheat; [6]) | Plant response rating, Wheat (wheat; [7]) | Rice plant response rating (rice; [9]) | Rice plant response rating (0 to 10 scale, 0 is no effect, 10 is complete control) (rice; [10]) | Rice plant response rating (rice; [11]) | Rice plant response rating (rice; [12]) | Plant response rating, B. signalgrass (surinam grass; [1]) | B. signalgrass plant response rating (surinam grass; [2]) | Plant response rating, B. signalgrass (surinam grass; [3]) | B. signalgrass plant response rating (surinam grass; [5]) | Soybean plant response rating (soybean; [5]) | Plant response rating, Soybean (soybean; [6]) | Plant response rating, Soybean (soybean; [7]) | Plant response rating, Cocklebur (cocklebur; [1]) | Cocklebur plant response rating (cocklebur; [2]) | Cocklebur plant response rating (cocklebur; [5]) | Plant response rating, Cocklebur (cocklebur; [6]) | Plant response rating, Cocklebur (cocklebur; [7]) | Plant response rating, Cocklebur (cocklebur; [8]) | Plant response rating, Wild oats (wild oat; [1]) | Wild oats plant response rating (wild oat; [2]) | Wild oats plant response rating (wild oat; [4]) | Wild oats plant response rating (wild oat; [5]) | S. Flatsedge plant response rating (smallflower flatsedge; [9]) | S. Flatsedge plant response rating (0 to 10 scale, 0 is no effect, 10 is complete control) (smallflower flatsedge; [10]) | S. Flatsedge plant response rating (smallflower flatsedge; [11]) | S. Flatsedge plant response rating (smallflower flatsedge; [12]) | Plant response rating, Velvetleaf (velvetleaf; [1]) | Velvetleaf plant response rating (velvetleaf; [2]) | Velvetleaf plant response rating (velvetleaf; [5]) | Plant response rating, Velvetleaf (velvetleaf; [6]) | Plant response rating, Velvetleaf (velvetleaf; [7]) | Plant response rating, Velvetleaf (velvetleaf; [8]) | Plant response rating, Sugarbeets (sugar beet; [1]) | Sugarbeets plant response rating (sugar beet; [2]) | Sugarbeets plant response rating (sugar beet; [4]) | Sugarbeets plant response rating (sugar beet; [5]) | Plant response rating, Sugarbeets (sugar beet; [6]) | Plant response rating, Sugarbeets (sugar beet; [7]) | Plant response rating, Sugarbeets (sugar beet; [8]) | Plant response rating, Giant foxtail (giant foxtail; [1]) | Plant response rating, Giant foxtail (giant foxtail; [3]) | Ducksalad plant response rating (duck salad; [9]) | Ducksalad plant response rating (0 to 10 scale, 0 is no effect, 10 is complete control) (duck salad; [10]) | Ducksalad plant response rating (duck salad; [11]) | Ducksalad plant response rating (duck salad; [12]) | Plant response rating, Corn (corn; [1]) | Corn plant response rating (corn; [2]) | Plant response rating, Corn (corn; [3]) | Corn plant response rating (corn; [4]) | Corn plant response rating (corn; [5]) | Plant response rating, Corn (corn; [6]) | Plant response rating, Corn (corn; [7]) | Plant response rating, Corn (corn; [8]) | Plant response rating, Blackgrass (blackgrass; [1]) | Blackgrass plant response rating (blackgrass; [2]) | Plant response rating, Blackgrass (blackgrass; [3]) | Blackgrass plant response rating (blackgrass; [5])
4: Plant response rating, B. signalgrass (surinam grass; [6]) | Giant foxtail plant response rating (giant foxtail; [2])
3: Plant response rating, Morningglory (morningglory; [3]) | B. signalgrass plant response rating (surinam grass; [4]) | Soybean plant response rating (soybean; [2]) | Cocklebur plant response rating (cocklebur; [4]) | Plant response rating, Wild oats (wild oat; [7])
2: Plant response rating, Wheat (wheat; [8]) | Plant response rating, Cocklebur (cocklebur; [3]) | Plant response rating, Wild oats (wild oat; [6]) | Velvetleaf plant response rating (velvetleaf; [4])
6: Morningglory plant response rating (morningglory; [4]) | Giant foxtail plant response rating (giant foxtail; [4]) | Blackgrass plant response rating (blackgrass; [4]) | Plant response rating, Blackgrass (blackgrass; [6]) | Blackgrass plant response rating (blackgrass; [7])
8: Plant response rating, B. signalgrass (surinam grass; [8])
9: Plant response rating, Wild oats (wild oat; [8]) | Giant foxtail plant response rating (giant foxtail; [5]) | Plant response rating, Giant foxtail (giant foxtail; [6]) | Plant response rating, Giant foxtail (giant foxtail; [7])
10: Plant response rating, Giant foxtail (giant foxtail; [8]) | Plant response rating, Blackgrass (blackgrass; [8])
5: B. signalgrass plant response rating (surinam grass; [7])
1: Plant response rating, Soybean (soybean; [1]) | Plant response rating, Soybean (soybean; [8])
7: Soybean plant response rating (soybean; [4])
